Data set [1] has as its system Pseudomonas aeruginosa ATCC27853. It counts as cell-based. An excerpt:
(§1) MIC is defined as the lowest concentration, in an antibiotic dilution range, that inhibits visible bacterial growth. The importance of MIC sensitivity test is based on the principle that in vitro sensitivity provides a predictive indication of the in vivo efficacy of the antibiotic therapy. Values are expressed as molar concentration and compared to MIC values obtained with commercially available antibiotics such as amikacin, ceftriaxone and levofloxacin (Table 3).
(§2) Reference strains (Escherichia coli ATCC 25922, Pseudomonas aeruginosa ATCC 27853, Staphylococus aureus ATCC 25923 and Chryseobacterium meningosepticum CCUG 4310) and several recent clinical isolates (including multidrug-resistant ones) of various species (Table 2) were used for conventional susceptibility testing experiments. Minimum Inhibitory Concentration (MIC) was determined by a standard microdilution assay as recommended by the National Commitee for Clinical Laboratory Standards (NCCLS) using cation-supplemented Mueller-Hinton (MH) broth (Oxoid Ltd. Basingstoke, UK) and a bacterial inoculum of 5×10^4 CFU per well, in a final volume of 100 μl. Results were recorded by visual inspection after 24 h of incubation at 37° C.

The subject of data set [2] is Staphylococcus aureus ATCC 25923. The format is cell-based. Particulars: Staphylococcus aureus ATCC 25923, reference strain.
Source text: as §1, §2

Data set [3] relates to Escherichia coli ATCC 25922. The format is cell-based.
Source text: as §1, §2

Data set [4] is described as follows: Stability to plasmatic protease (HPLC). The format is in vitro ADME, human. Here is the method:
Since the use of peptides as therapeutic agents is severely limited by their in vivo half-life, the stability to human serum protease of the linear peptide L1 and of the MAP peptides M1, M4, M5 and M6 was evaluated. The peptides were incubated at the concentration of 10 mM with plasma and with human serum for 2 and 24 hours; the samples were subsequently analysed in HPLC on column C18 (see materials and methods) to evaluate the presence of linear and MAP peptide not digested by the protease.
The various peptides in MAP form and the linear peptide (L1) were dissolved in H2O at the concentration of 10 mM and incubated with 10 μl of plasma and human serum for 2 and 24 hours at 37° C. To each sample were added 150 μl of methanol to block the proteolytic reaction; each sample was then centrifuged at 13,000 rpm for 2 min and to the supernatant were added 0.75 ml of 0.1% trifluoroacetic acid. The samples were analysed in reverse phase HPLC on a Vydac C18 semi-preparative column using a 30 min gradient of buffer B from 20% to 95% (buffer A: 0.1% trifluoroacetic acid/water; buffer B: 0.1% trifluoroacetic acid/methanol), to evaluate the presence of linear and MAP peptide after the proteolytic treatment.

For data set [5], the system named is E. coli strain TG1. As to the kind of experiment: Test of antibacterial activity (colony growth inhibition) on E. coli strain TG1. It counts as cell-based. To be noted: E. coli TG1, colony counting vs control without peptide. How it is done: The antimicrobic activity of the peptides in linear form (L1, L4, L5, L6) and in MAP form (M1, M4, M5, M6) was assayed on the TG1 strain of E. coli. The peptides were incubated at various concentrations (2-1-0.5-0.25-0.12 mg/ml) with cells of E. coli (OD600=0.2) for about 1 hour at 37° C. Subsequently, the cells were plated on agar at dilution such to allow counting of individual colonies. The antimicrobic activity of the synthesised peptide L 1 and M1 is shown FIG. 1 and is compared to a non correlated MAP peptide (MNC) used as negative control.
In one example, the tetrabranched MAP peptides with the amino acid sequence: QAKIRVRLSA [SEQ ID NO: 2], KIRVRLSA [SEQ ID NO: 3], QKKIRVRLSA [SEQ ID NO: 4] are used individually in a bacterial colony growth inhibition test. The test is conducted by incubating different concentrations of MAP peptides with E. coli (strain TG1) and plating bacterial cells on agar at a dilution such to allow for individual colonies counting. The following day, the number of colonies grown after treatment with the three MAP peptides is compared.
Antimicrobic tests were conducted incubating for 75 min at 37° C., 25 μL of E. coli at the OD600 of 0.2 with 25 μl of MAP peptide dissolved in PBS at the various concentrations. The different incubations were further diluted 1:1000 in 2×TY medium and 100 μl were plated on solid 2×TY medium. The plates were left overnight at 30° C. and the individual grown colonies were counted and compared with a control, not treated with MAP peptide.

The subject of data set [6] is E. coli plasmid vector pCEP4 DNA. As to the kind of experiment: DNA binding assay (gel retardation). To be noted: 200 ng pCEP4, 1% agarose gel, 1 h room temperature. Here is the method: In an attempt to clarify the molecular mechanism of action, the authors examined the binding properties on DNA exerted by M6 dendrimeric peptide and magainin 2, an antimicrobial peptide which has a pore-forming activity on the cell membrane. The DNA binding abilities of M6 and magainin 2 were examined by analyzing the electrophoretic mobility of DNA bands at the various weight ratios of peptides to DNA on a 1% (w/v) agarose gel.
Gel-retardation experiments were performed by mixing 200 ng of the E. coli plasmid vector pCEP4 (Invitrogen) with increasing amounts of M6 peptide in 20 μl of binding buffer (5% glycerol, 10 mM Tris-HCl (pH 8.0), 1 mM EDTA, 1 mM DTT, 20 mM KCl and 50 μg/ml BSA). The reaction mixtures were incubated at room temperature for 1 h. Subsequently, 4 μl of native loading buffer was added (40% saccarose, 0.25% bromophenol blue) and an aliquot of 12 μl was applied to a 1% agarose gel electrophoresis in 1 mM Tris borate-EDTA buffer.

Where [7] appears, read: Escherichia coli ATCC 25922, reference strain.
Setting [8] is: Pseudomonas aeruginosa ATCC27853, reference strain.

Like-named read-outs stand apart in the source and are kept apart here. Positions of bridges follow the written chain, without caps; N, C: chain ends. Residues, ends and D or L forms follow the SMILES beside them. Chains are numbered I, II in the order given. No end group written: not given here.

For the compound “I: QKKARVRLSAKKA-OH / II: QKKARVRLSAK / III: QKKARVRLSA / IV: QKKARVRLSA (amide I:11-IV:C, I:12-II:C, II:11-III:C) [M34, QKKARVRLSA]”, the “MIC (Molarity)” value in data set [1] (ATCC27853) was 12 µM; in data set [2], >12 µM; in data set [3] (setting [7]), >12 µM.

With “I: AKKIRVRLSAKKA-OH / II: AKKIRVRLSAK / III: AKKIRVRLSA / IV: AKKIRVRLSA (amide I:11-IV:C, I:12-II:C, II:11-III:C) [M31]”, the figures for the “MIC (Molarity)” value in data set [1] (ATCC27853), in data set [2] and in data set [3] (ATCC 25922) were 3 µM, >12 µM and 3 µM, respectively.

On to “I: QKKIRVALSAKKA-OH / II: QKKIRVALSAK / III: QKKIRVALSA / IV: QKKIRVALSA (amide I:11-IV:C, I:12-II:C, II:11-III:C) [M37]”, for which the “MIC (Molarity)” value in data set [1] (ATCC27853) was 3 µM; in data set [2], >12 µM; in data set [3] (ATCC 25922) it was 3 µM.

For `C[C@H]1COc2c(N3CCN(C)CC3)c(F)cc3c(=O)c(C(=O)O)cn1c23` [LEVOFLOXACIN, levofloxacin, reference compound], the “MIC (Molarity)” value in data set [1] (setting [8]) lay within 0.16 to 1.3 µM; in data set [2] it was 0.022 to 16 µM; in data set [3] (setting [7]), 1.3 to 11 µM.

As for `CO/N=C(\C(=O)N[C@@H]1C(=O)N2C(C(=O)O)=C(CSc3nc(=O)c(=O)[nH]n3C)CS[C@H]12)c1csc(N)n1` [CEFTRIAXONE, ceftriaxone, reference compound], the figures for the “MIC (Molarity)” value in data set [1] (setting [8]), in data set [2] and in data set [3] (setting [7]) were 1.7 to 14 µM, 0.054 to 0.21 µM and 14 to 110 µM, respectively.

In the case of “I: QKKIRVRLAAKKA-OH / II: QKKIRVRLAAK / III: QKKIRVRLAA / IV: QKKIRVRLAA (amide I:11-IV:C, I:12-II:C, II:11-III:C) [M39, QKKIRVRLAA]”, the figures for the “MIC (Molarity)” value in data set [1] (ATCC27853), in data set [2] and in data set [3] (ATCC 25922) were 3 µM, >12 µM and 3 µM, respectively.

In the case of `NCC[C@H](O)C(=O)N[C@@H]1C[C@H](N)[C@@H](O[C@H]2O[C@H](CN)[C@@H](O)[C@H](O)[C@H]2O)[C@H](O)[C@H]1O[C@H]1O[C@H](CO)[C@@H](O)[C@H](N)[C@H]1O` [AMIKACIN, amikacin, reference compound], the figures for the “MIC (Molarity)” value in data set [1] (setting [8]), in data set [2] and in data set [3] (setting [7]) were 1.7 to 6.8 µM, 0.85 to 6.8 µM and 1.7 to 6.8 µM, respectively.

Take “I: QRRIRVRLSAKKA-OH / II: QRRIRVRLSAK / III: QRRIRVRLSA / IV: QRRIRVRLSA (amide I:11-IV:C, I:12-II:C, II:11-III:C) [M30, QRRIRVRLSA]”: the “MIC (Molarity)” value in data set [1] (ATCC27853) is 12 µM; in data set [2], >12 µM; in data set [3] (ATCC 25922) it was 3 µM.

As for QKKIRVRASA [M38], the “MIC (Molarity)” value in data set [1] (setting [8]), in data set [2] and in data set [3] (setting [7]) was >12 µM in each case.

Turning to “I: QKAIRVRLSAKKA-OH / II: QKAIRVRLSAK / III: QKAIRVRLSA / IV: QKAIRVRLSA (amide I:11-IV:C, I:12-II:C, II:11-III:C) [M33, QKAIRVRLSA]”, the results for the “MIC (Molarity)” value in data set [1] (setting [8]), in data set [2] and in data set [3] (setting [7]) were 1.5 µM, >12 µM and 1.5 µM, respectively.

For “I: QKRIRVRLSAKKA-OH / II: QKRIRVRLSAK / III: QKRIRVRLSA / IV: QKRIRVRLSA (amide I:11-IV:C, I:12-II:C, II:11-III:C) [M29, QKRIRVRLSA]”, the “MIC (Molarity)” value in data set [1] (ATCC27853) is 6 µM; in data set [2] it was >12 µM; in data set [3] (ATCC 25922) it was 6 µM.

Turning to QKKIRARLSA [M36], the “MIC (Molarity)” value in data set [1] (setting [8]), in data set [2] and in data set [3] (setting [7]) was >12 µM in each case.

In the case of “I: QRKIRVRLSAKKA-OH / II: QRKIRVRLSAK / III: QRKIRVRLSA / IV: QRKIRVRLSA (amide I:11-IV:C, I:12-II:C, II:11-III:C) [M28]”, the “MIC (Molarity)” value was 0.76 µM in data set [1] (setting [8]), >12 µM in data set [2] and 0.38 µM in data set [3] (setting [7]).

For “I: QKKIAVRLSAKKA-OH / II: QKKIAVRLSAK / III: QKKIAVRLSA / IV: QKKIAVRLSA (amide I:11-IV:C, I:12-II:C, II:11-III:C) [M35, QKKIAVRLSA]”, the figures for the “MIC (Molarity)” value in data set [1] (ATCC27853), in data set [2] and in data set [3] (ATCC 25922) were 1.5 µM, >12 µM and 6 µM, respectively.

As to `CC[C@H](C)[C@H](NC(=O)[C@H](CCCCN)NC(=O)[C@H](CCC(=O)O)NC(=O)[C@@H](N)CCC(N)=O)C(=O)N[C@@H](CCCNC(=N)N)C(=O)N[C@H](C(=O)N[C@@H](CCCNC(=N)N)C(=O)N[C@@H](CC(C)C)C(=O)N[C@@H](CO)C(=O)N[C@@H](C)C(N)=O)C(C)C` [L1, QEKIRVRLSA] (H-QEKIRVRLSA-NH2; N-terminus assumed), in data set [4], the “Resistance to plasmatic protease: Plasma 2 h” value is “+” and the “Resistance to plasmatic protease: Plasma 24 h” value is reported as “−”. Moreover, the “Antibacterial activity on E. coli TG1 colony growth” value in data set [5] is on record as “inhibited significantly”.

On to magainin 2 [reference compound], for which the “Weight ratio of peptide to DNA at which migration of DNA is inhibited” value in data set [6] was 5.

For the origin of these results see US8268961B2, “Antibacterial peptides and analogues thereof” (Universita Degli Studi di Siena, priority 2004, dated 2012).
